Test results published in the supplement of paper PMC10307832.

Columns and labels:
Assay in all cases: relative viability (nuclei count vs DMSO), 5 days (fraction); higher = more cells survive
[1] = compound: C1=CC=C(C(=C1)C2=CC=C(C=C2)C3=CSC4=C3C(=C(C(=O)N4)C#N)O)O + COc1cccc2cc(-c3nc([C@H]4CC[C@H](C(=O)O)CC4)n4ncnc(N)c34)[nH]c12 [OSI-027] (partner 0.5 µM)
Procedure, shortened: (§1)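 For relative viability, nuclei counts in treated wells were divided by those in vehicle wells. Lung cancer cell lines had been pin-tool dosed in 1536-well plates the day after seeding and cultured for 5 days, then fixed and stained in one step (final 0.05% Triton X-100, 1% formaldehyde, 1 ug/ml Hoechst) and imaged at 4×. Doses were one drug alone or a fixed anchor-drug dose plus five library-drug doses (not always all listed) in √10 steps, and values are duplicate-plate medians.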

[2] = compound: C1=CC=C(C(=C1)C2=CC=C(C=C2)C3=CSC4=C3C(=C(C(=O)N4)C#N)O)O + Nc1ncn([C@H]2C[C@H](O)[C@@H](CO)O2)c(=O)n1 [Decitabine] (partner 2 µM)
Procedure, shortened: as §1

TGX 221 + Decitabine = compound: CC1=CN2C(=O)C=C(N=C2C(=C1)C(C)NC3=CC=CC=C3)N4CCOCC4 [TGX 221] + Nc1ncn([C@H]2C[C@H](O)[C@@H](CO)O2)c(=O)n1 [Decitabine] (partner 2 µM)
Procedure, shortened: as §1

Ricolinostat + Foretinib = compound: O=C(CCCCCCNC(=O)c1cnc(N(c2ccccc2)c2ccccc2)nc1)NO [Ricolinostat] + COc1cc2c(Oc3ccc(NC(=O)C4(C(=O)Nc5ccc(F)cc5)CC4)cc3F)ccnc2cc1OCCCN1CCOCC1 [Foretinib] (partner 0.25 µM)
Procedure, shortened: as §1

Cell Line | relative viability ([1]; first compound 0.08 µM) | relative viability ([1]; first compound 0.253 µM) | relative viability ([1]; first compound 0.8 µM) | relative viability ([1]; first compound 2.53 µM) | relative viability ([1]; first compound 8 µM) | relative viability ([2]; first compound 0.08 µM) | relative viability ([2]; first compound 0.253 µM) | relative viability ([2]; first compound 0.8 µM) | relative viability ([2]; first compound 2.53 µM) | relative viability ([2]; first compound 8 µM) | relative viability (TGX 221 + Decitabine; first compound 0.08 µM) | relative viability (TGX 221 + Decitabine; first compound 0.253 µM) | relative viability (TGX 221 + Decitabine; first compound 0.8 µM) | relative viability (TGX 221 + Decitabine; first compound 2.53 µM) | relative viability (TGX 221 + Decitabine; first compound 8 µM) | relative viability (Ricolinostat + Foretinib; first compound 0.253 µM) | relative viability (Ricolinostat + Foretinib; first compound 0.8 µM) | relative viability (Ricolinostat + Foretinib; first compound 2.53 µM) | relative viability (Ricolinostat + Foretinib; first compound 0.08 µM)
COR-L 105 | 0.72 | 0.737 | 0.734 | 0.628 | 0.602 | 0.715 | 0.684 | 0.793 | 0.664 | 0.564 | 0.651 | 0.609 | 0.628 | 0.649 | 0.596 | 0.874 | 0.917 | 1.16 | 
SW 900 | 0.461 | 0.628 | 0.426 | 0.462 | 0.356 |  | 0.452 | 0.467 | 0.459 | 0.446 |  | 0.406 | 0.466 | 0.42 | 0.351 | 0.883 | 0.886 | 0.989 | 0.733
NCI-H1993 | 0.442 | 0.539 | 0.543 | 0.595 | 0.595 | 0.633 | 0.672 | 0.622 | 0.62 | 0.572 | 0.593 | 0.693 | 0.663 | 0.598 | 0.547 | 0.893 | 0.854 | 0.856 | 
NCI-H1395 | 0.501 | 0.647 | 0.637 | 0.644 | 0.576 |  | 0.801 | 0.703 | 0.702 | 0.745 | 0.712 | 0.685 | 0.662 | 0.615 | 0.614 | 0.954 | 1.07 | 1.06 | 
SW 1573 | 0.618 | 0.821 | 0.657 | 0.54 | 0.391 | 0.447 | 0.536 | 0.552 | 0.468 | 0.425 | 0.457 | 0.387 | 0.535 | 0.517 | 0.524 | 1.12 | 0.899 | 0.918 | 0.863
BEN | 0.305 | 0.303 | 0.497 | 0.313 | 0.286 | 0.605 | 0.745 | 0.771 | 0.717 | 0.653 | 0.679 | 0.669 | 0.667 | 0.715 | 0.715 | 0.598 | 0.483 | 0.481 | 0.657
RERF-LC-KJ | 0.562 | 0.755 | 0.561 | 0.551 | 0.457 | 0.762 | 0.756 | 0.609 | 0.819 | 0.681 | 0.632 | 0.75 | 0.762 | 0.692 | 0.678 | 0.795 | 0.88 | 0.802 | 0.842
UMC-11 | 0.429 | 0.641 | 0.503 | 0.446 | 0.437 | 0.668 | 1.02 | 0.495 | 0.477 | 0.57 | 0.522 | 0.545 | 0.725 | 0.572 | 0.62 | 1.07 | 0.864 | 0.504 | 1.13
HOP-62 | 0.795 | 0.728 | 0.591 | 0.958 | 0.756 | 0.218 | 0.238 | 0.221 | 0.238 | 0.211 | 0.213 | 0.185 | 0.207 | 0.246 | 0.268 | 1.03 | 1 | 1.09 | 1
NCI-H2023 | 0.32 | 0.441 | 0.404 | 0.382 | 0.317 | 0.242 | 0.247 | 0.197 | 0.222 | 0.196 | 0.224 | 0.236 | 0.243 | 0.217 | 0.23 | 0.799 | 0.786 | 0.742 | 
NCI-H596 | 0.55 | 0.722 | 0.692 | 0.732 | 0.553 | 1.02 | 1.79 | 1.09 | 0.898 | 0.891 | 0.987 | 1.16 | 1.14 | 1.08 | 0.963 | 0.825 | 0.857 | 0.924 | 0.922
LOU-NH91 | 0.765 | 0.721 | 0.71 | 0.727 | 0.69 | 0.854 | 0.865 | 0.824 | 0.781 | 0.782 | 0.821 | 0.763 | 0.785 | 0.802 | 0.788 | 0.904 | 0.97 | 0.918 | 0.742
COR-L23 | 0.614 | 0.715 | 0.534 | 1.11 | 0.723 | 0.469 | 0.54 | 0.429 | 0.431 | 0.417 | 0.445 | 0.402 | 0.483 | 0.487 | 0.489 | 0.965 | 0.87 | 0.653 | 0.973
EPLC-272H | 0.253 | 0.286 | 0.263 | 0.27 | 0.289 | 0.385 |  | 0.329 | 0.356 | 0.35 | 0.352 | 0.349 | 0.316 | 0.343 | 0.332 | 0.704 | 0.442 | 0.354 | 0.632
H3255 | 0.684 | 0.599 | 0.671 | 0.553 | 0.532 | 0.481 | 0.618 |  | 0.644 | 0.585 | 0.54 | 0.595 | 0.53 | 0.58 | 0.553 | 0.962 | 0.685 | 0.589 | 0.626
NCI-H650 | 0.474 | 0.469 | 0.501 | 0.587 | 0.58 | 0.297 | 0.333 | 0.307 | 0.312 | 0.315 | 0.326 | 0.301 | 0.318 | 0.343 | 0.343 | 0.997 | 0.872 | 0.8 | 0.957
NCI-H1944 | 0.39 | 0.436 | 0.336 | 0.367 | 0.4 | 0.454 | 0.44 | 0.39 | 0.468 | 0.465 |  | 0.449 | 0.442 | 0.443 | 0.389 | 0.835 | 0.689 | 0.641 | 0.828
NCI-H23 | 0.69 | 0.523 | 0.596 | 0.575 | 0.537 | 0.305 | 0.33 | 0.337 | 0.327 | 0.312 | 0.35 | 0.329 | 0.271 | 0.33 | 0.322 | 0.898 | 0.97 | 1.13 | 0.999
NCI-H358 | 0.787 | 0.724 | 0.758 | 0.779 | 0.736 | 0.205 | 0.23 | 0.205 | 0.2 | 0.177 | 0.22 | 0.216 | 0.209 | 0.181 | 0.203 | 0.636 | 0.631 | 0.503 | 0.594
HCC-366 | 1.32 | 1.18 | 0.875 | 0.945 | 0.719 |  | 0.46 | 0.343 | 0.332 | 0.358 | 0.333 | 0.305 | 0.345 | 0.344 | 0.365 | 0.837 | 0.975 | 0.817 | 0.915
NCI-H2405 | 0.648 | 0.656 | 0.607 | 0.679 | 0.65 | 0.798 |  | 0.774 | 0.66 | 0.725 | 0.72 | 0.729 | 0.75 | 0.68 | 0.615 | 1.05 | 1.07 | 1.11 | 0.927
NCI-H441 | 0.647 | 0.669 | 0.565 | 0.822 | 0.646 | 0.28 | 0.3 | 0.286 | 0.242 | 0.233 | 0.226 | 0.239 | 0.24 | 0.285 | 0.287 | 0.878 | 0.872 | 0.921 | 
NCI-H322M | 0.59 | 0.489 | 0.502 | 0.576 | 0.514 | 0.679 | 0.667 | 0.747 | 0.69 | 0.731 | 0.628 | 0.683 | 0.693 | 0.62 | 0.678 | 0.964 | 0.893 | 0.928 | 
